In ChEMBL document CHEMBL1201862, “PubChem BioAssay data set” (2004):
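A five-concentration, 48-hour dose response in 96-well plates underlies each endpoint, interpolated linearly between surrounding concentrations. GI50: concentration for 50% inhibition of growth.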 Activity calls are given as the source filed them. No stated cut-off is given here; in the data, active = GI50 up to about 1.1 µM and inactive = higher.

What was measured:
Assay in all cases: DTP human tumour cell line panel, 48 h
OVCAR-4 = system: OVCAR-4
NCI-H460 = system: NCI-H460
HOP-92 = system: HOP-92
Hs-578T = system: Hs-578T
RPMI-8226 = system: RPMI-8226
SF-268 = system: SF-268
SNB-75 = system: SNB-75
T47D = system: T47D
NCI/ADR-RES = system: NCI/ADR-RES
SK-OV-3 = system: SK-OV-3
OVCAR-5 = system: OVCAR-5
786-0 = system: 786-0
MOLT-4 = system: MOLT-4
LOX IMVI = system: LOX IMVI
OVCAR-3 = system: OVCAR-3
CCRF-CEM = system: CCRF-CEM
TK-10 = system: TK-10
M14 = system: M14
U-251 = system: U-251
EKVX = system: EKVX

Measured: GI50

CC1(C)Oc2ccccc2OC1O (stereo not given)
inactive: OVCAR-4 > 100 µM | NCI-H460 > 100 µM | HOP-92 > 100 µM | Hs-578T > 100 µM | RPMI-8226 > 100 µM | SF-268 > 100 µM | SNB-75 > 100 µM | T47D > 100 µM | NCI/ADR-RES > 100 µM | SK-OV-3 > 100 µM | OVCAR-5 > 100 µM | 786-0 > 100 µM | MOLT-4 > 100 µM | LOX IMVI > 100 µM | OVCAR-3 > 100 µM | CCRF-CEM > 100 µM | TK-10 > 100 µM | M14 > 100 µM | U-251 > 100 µM | EKVX > 100 µM

CC(=O)NCCCCN(CCCNC(C)=O)C(=O)OCc1ccccc1
inactive: OVCAR-4 > 100 µM | NCI-H460 > 100 µM | HOP-92 > 100 µM | Hs-578T > 100 µM | RPMI-8226 > 100 µM | SF-268 > 100 µM | SNB-75 19.1 µM | T47D > 100 µM | NCI/ADR-RES > 100 µM | SK-OV-3 > 100 µM | OVCAR-5 > 100 µM | 786-0 > 100 µM | MOLT-4 > 100 µM | LOX IMVI > 100 µM | OVCAR-3 > 100 µM | CCRF-CEM > 100 µM | TK-10 > 100 µM | M14 > 100 µM | U-251 > 100 µM | EKVX > 100 µM

N#Cc1c(N)nc2c(C#N)c(N)cc3c2c1Oc1ccccc1-3
inactive: OVCAR-4 > 100 µM | NCI-H460 > 100 µM | HOP-92 > 100 µM | Hs-578T > 100 µM | RPMI-8226 > 100 µM | SF-268 > 100 µM | SNB-75 > 100 µM | T47D > 100 µM | NCI/ADR-RES > 100 µM | SK-OV-3 > 100 µM | OVCAR-5 > 100 µM | 786-0 > 100 µM | MOLT-4 > 100 µM | LOX IMVI > 100 µM | OVCAR-3 > 100 µM | CCRF-CEM > 100 µM | TK-10 > 100 µM | M14 > 100 µM | U-251 > 100 µM | EKVX > 100 µM

c1cc2n(n1)CCN2
inactive: OVCAR-4 5550 µM | NCI-H460 820 µM | HOP-92 1590 µM | Hs-578T > 1470 µM | RPMI-8226 1890 µM | SF-268 1550 µM | SNB-75 3400 µM | T47D 347 µM | NCI/ADR-RES 561 µM | SK-OV-3 3040 µM | OVCAR-5 4300 µM | 786-0 1120 µM | MOLT-4 348 µM | LOX IMVI 662 µM | OVCAR-3 2280 µM | CCRF-CEM 186 µM | TK-10 > 1490 µM | M14 486 µM | U-251 706 µM | EKVX 1770 µM

O=S1(=O)CCN(c2ccccc2CC(c2c[nH]c3ccccc23)c2c[nH]c3ccccc23)CC1
inactive: OVCAR-4 7.91 µM | NCI-H460 2.67 µM | HOP-92 5.37 µM | Hs-578T 7.71 µM | RPMI-8226 1.75 µM | SF-268 5.19 µM | SNB-75 5.02 µM | T47D 6.35 µM | NCI/ADR-RES 6.62 µM | SK-OV-3 8.67 µM | OVCAR-5 14.1 µM | 786-0 6.03 µM | MOLT-4 2.33 µM | LOX IMVI 3.57 µM | OVCAR-3 5.53 µM | CCRF-CEM 1.99 µM | TK-10 5.32 µM | M14 4.35 µM | U-251 7.87 µM | EKVX 8.49 µM

CCOC(=O)/C(C(N)=O)=C(O)/C(O)=C/C(=O)c1ccc(Cl)cc1
inactive: OVCAR-4 34.4 µM | NCI-H460 16 µM | HOP-92 21.8 µM | Hs-578T 42.1 µM | RPMI-8226 19.8 µM | SF-268 20.6 µM | SNB-75 12.8 µM | T47D 18.6 µM | NCI/ADR-RES 21.4 µM | SK-OV-3 20.6 µM | OVCAR-5 23.5 µM | 786-0 17.2 µM | MOLT-4 20.1 µM | LOX IMVI 16.3 µM | OVCAR-3 21.9 µM | CCRF-CEM 4.53 µM | TK-10 8.63 µM | M14 21.2 µM | U-251 15.6 µM | EKVX 25.9 µM
